Paper PMC10591299, “Targeting SHP2 with an Active Site Inhibitor Blocks Signaling and Breast Cancer Cell Phenotypes” (ACS Bio & Med Chem Au, 2023)

Experiments:
[1] = biological target: T1, PTP1B (Homo sapiens, UniProt P18031); experiment: Cellular thermal shift assay (CETSA), nontarget PTP1B immunoblot; type: binding; conditions: 100 μM CNBCA, cell lysate
T1 construct: compared it with the nontarget PTP1B protein; endogenous in cells
T1 sequence (P18031 1-435): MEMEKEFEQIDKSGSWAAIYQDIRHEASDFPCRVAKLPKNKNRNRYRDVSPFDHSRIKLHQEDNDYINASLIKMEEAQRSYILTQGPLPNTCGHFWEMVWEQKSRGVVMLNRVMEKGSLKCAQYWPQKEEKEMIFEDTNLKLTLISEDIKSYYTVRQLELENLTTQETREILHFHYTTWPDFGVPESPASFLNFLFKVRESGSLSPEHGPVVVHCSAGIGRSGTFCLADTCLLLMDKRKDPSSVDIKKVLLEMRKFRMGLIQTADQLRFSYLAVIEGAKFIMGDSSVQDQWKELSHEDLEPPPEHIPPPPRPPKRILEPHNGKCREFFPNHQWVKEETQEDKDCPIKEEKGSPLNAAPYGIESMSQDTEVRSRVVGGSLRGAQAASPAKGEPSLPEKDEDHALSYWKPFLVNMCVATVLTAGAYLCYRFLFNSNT
Description: First, we used the cellular thermal shift assay (CETSA) to show whether CNBCA binds to endogenous full-length SHP2 under cellular contexts. The CETSA assay is based on the principle that specific inhibitors bind to a target protein and confer relative stability from heat-induced denaturation and precipitation when compared to a nontarget protein present in the same milieu.[34] Accordingly, we performed CETSA to test the effect of CNBCA on the SHP2 protein stability and compared it with the nontarget PTP1B protein as described in the materials and methods.
After heat treatment, supernatants were analyzed by immunoblotting (IB) for SHP2 and the nontarget phosphatase PTP1B. […] To provide semiquantitative data, band densities of both SHP2 and PTP1B were measured and presented as bar graph. […] On the other hand, the nontarget protein PTP1B was reduced to approximately 50% at 49 °C, to 25% at 55 °C, and to less than 10% at 58 °C (Figure 3B and D).
For the CETSA study, total protein extracts (TPE) prepared from two breast cancer cells, the triple-negative MDA-MB468 and the HER2-positive JIMT-1 cells, were used. Briefly, TPE from the two cell lines were cleared by centrifugation, mixed with CNBCA at 100 μM concentration (the maximum amount used in the IC50 studies), and incubated for 10 min at room temperature to allow binding. The mixture was then divided into 100 μL aliquots, treated with heat for 10 min at different temperatures, ranging from 37 to 64 °C that differ by 3 °C intervals, cooled on ice for 10 min, centrifuged at 20,000g for 20 min to remove precipitated proteins, and the supernatants analyzed by immunoblotting (IB) for SHP2 and the nontarget PTP, PTP1B. Aliquots that were mixed with CNBCA, but not treated with heat were used as positive controls for comparison.

[2] = biological target: T2, FL-SHP2 (Homo sapiens, UniProt Q06124); experiment: PTPase assay on FLAG-tagged full-length SHP2 immunoprecipitated from MDA-MB468 cells; type: biochemical; conditions: FLAG-tagged FL-SHP2 on beads from MDA-MB468 cells, 20 μM DiFMUP
T2 construct: whether CNBCA is also effective against full-length SHP2 (FL-SHP2); expressed in transfected cells; host or cells: MDA-MB468
T2 sequence (Q06124 1-593): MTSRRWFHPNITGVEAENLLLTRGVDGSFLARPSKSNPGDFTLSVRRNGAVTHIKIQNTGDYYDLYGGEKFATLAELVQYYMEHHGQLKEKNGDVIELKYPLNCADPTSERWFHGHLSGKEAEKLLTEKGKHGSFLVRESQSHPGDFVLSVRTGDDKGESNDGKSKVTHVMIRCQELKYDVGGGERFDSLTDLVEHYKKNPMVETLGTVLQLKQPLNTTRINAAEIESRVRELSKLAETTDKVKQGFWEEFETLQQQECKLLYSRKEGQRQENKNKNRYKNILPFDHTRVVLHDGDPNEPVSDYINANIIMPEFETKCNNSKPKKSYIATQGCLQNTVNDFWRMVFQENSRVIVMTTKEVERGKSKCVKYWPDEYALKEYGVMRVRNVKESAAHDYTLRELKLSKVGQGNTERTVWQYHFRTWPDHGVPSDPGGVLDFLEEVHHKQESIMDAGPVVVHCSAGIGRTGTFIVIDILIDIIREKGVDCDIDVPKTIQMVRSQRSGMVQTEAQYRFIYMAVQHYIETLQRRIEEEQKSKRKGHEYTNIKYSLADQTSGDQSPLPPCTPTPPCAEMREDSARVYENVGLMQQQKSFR
Description: To confirm efficiency of the expression, we conducted IB analysis of total protein extracts (TPE) prepared from the noncancerous MEF cells (mouse embryo fibroblasts), the MDA-MB468 BC cells that overexpress EGFR, and the BT474 BC cells that overexpress HER2. […] We also performed HER2 and EGFR IB analyses, which confirmed overexpression of these RTKs in the BC cells, but not in the MEF cells. […] Next, FL-SHP2 was immunoprecipitated (IP) with anti-FLAG antibody from the TPEs of the three cells (Figure 3F) and used for determining the activation state while still bound to protein-A sepharose beads, as described in the materials and methods. […] We thus used SHP2 expressed in BC cells to test the inhibitory effect of CNBCA on FL-SHP2. […]
For determining the inhibitory effect of CNBCA on FL-SHP2, a FLAG-tagged protein ectopically expressed in the EGFR overexpressing MDA-MB468 cells[8],[15] was used as an enzyme. […] After 20 min of incubation at 37 °C, 100 μL of the supernatant from each sample was transferred to 96-well plates, and fluorescence intensity measure as above, using the Synergy 4 plate reader. The resulting data was then analyzed with the Graphpad Prism software to draw the graph and determine the IC50 value.

## CCCCCCCCCOc1ccc(-c2ccc(C(=O)O)cc2)cc1CCCC(=O)O [CNBCA, 3′-(3-carboxypropyl)-4′-(nonyloxy)-[1,1′-biphenyl]-4-carboxylic acid]
[1]; heat 49 °C 10 min
  PTP1B remaining in solution (band density): approximately 50%
[1]; heat 55 °C 10 min
  PTP1B remaining in solution (band density): 25%
[1]; heat 58 °C 10 min
  PTP1B remaining in solution (band density): less than 10%
[2]
  IC50: 615 nM
